Laboratory results taken from patent EP4703359A1 (Shanghai Simr Biotechnology Co., Ltd., priority 2023, dated 2024).

Legend:
[1] = target: T1, α2-GABAA receptor (Homo sapiens, UniProt P18507+P47869); test: Radioactive ligand (3H-flunitrazepam) competitive binding assay, BZD site of membrane proteins of α2-GABAAR-HEK293 cells; conditions: competition with 1 nM 3H-flunitrazepam; HEK293 membranes expressing α2, β3, γ2 subunits; Ki calculated from IC50; read-out: α2 Ki
T1 construct: expressed in transfected cells
Source text: (§1) The α subunit, β subunit, and γ subunit are indispensable for forming a fully functional GABAA receptor. In this example, HEK293 cells stably expressing α2-GABAA receptors (α2-GABAAR) were constructed and screened respectively via liposome transfection (Felgner, P.L., et al. Proceedings of the National Academy of Sciences, 1987, 84: 7413-7417). The α2-GABAAR-HEK293 cell model co-expresses the α2 subunit (protein sequence referenced under GenBank accession number: NM_000807.4), β3 subunit (protein sequence referenced under GenBank accession number: NM_000814.5), and γ2 subunit (protein sequence referenced under GenBank accession number: NM_000816.3).
(§2) The above cell lines were subcultured. α2-GABAAR-HEK293 cells were amplified for testing the affinity of compounds to the benzodiazepine (BZD) site of GABAA receptors. Some of the α2-GABAAR-HEK293 cells in suspension during subculturing were plated on glass slides pre-treated with Poly-D-Lysine for electrophysiological testing (method reference: Patent CN 107344936 A, paragraph 0586).
The affinity of the compound for the α2-GABAA receptor was determined by competing with ^3H-flunitrazepam (isotope ^3H-labeled flunitrazepam) for binding to the BZD site of membrane proteins in HEK293 cells stably expressing human α2-GABAAR.
Membrane preparation: Cells were suspended in 50 mM Tris-HCl buffer (pH=7.4), homogenized on ice using a homogenizer for 20 seconds with 10 repetitions, and centrifuged at 4°C, 1000g for 10 minutes. The supernatant was collected, and the above steps were repeated. The supernatant was centrifuged at 4°C (33,800 × g; Thermo, rotor: A27-8x50) for 60 minutes, and the pellet was resuspended in Tris buffer (50 mM Tris-HCl, 10 mM MgCl2, 0.5 mM EDTA, 10% glycerol). The protein concentration was determined using the bicinchoninic acid (BCA) protein assay based on the copper ion reduction method (BCA kit purchased from Pierce (Annoron)). Aliquots of 1 mL were prepared and stored at -80°C.
Radioactive ligand competitive binding assay: This assay was conducted in a 200 µL system (96-well plate), containing 100 µL of cell membrane. The concentration of ^3H-flunitrazepam was 1 nM, and the concentration of the test compound ranged from […]. Flumazenil was used as a control. The low signal control well (Low Control, LC) was added with 1 µL of 2 mM flumazenil (final concentration 10 µM), while the high signal control well (High Control, HC) was added with 1 µL of dimethyl sulfoxide. The final concentration of the target membrane protein was 5 µg/well. All test compound stock solutions were prepared as 10 mM solutions in dimethyl sulfoxide. The working concentration of the samples was prepared by diluting all samples to 0.2 mM with dimethyl sulfoxide, followed by a 4-fold serial dilution to obtain a total of 8 concentration gradients. The 96-well plate was sealed with sealing film and then incubated on a shaker at room temperature for 1 hour. The GF/C filter plate was also soaked with a soaking buffer (0.3% PEI (polyethyleneimine, purchased from: Sigma-Aldrich, model: P314), stored at 4°C) for at least 0.5 hours. After the incubation was completed, the mixture was collected onto a GF/C filter plate using a cell harvester and washed four times with wash buffer (50 mM Tris-HCl, pH 7.4, stored at 4°C). After drying in a 50°C oven for 1 hour, the dried GF/C filter plate was sealed at the bottom with a film. The residual radioactivity on the filter membrane was detected using liquid scintillation counting. Each well was filled with 50 µL of scintillation fluid and sealed. Readings were taken using a Microbeta^2 (microplate counter, purchased from PerkinElmer, model: CNLL0153). The inhibitory activity of the test sample on the binding of ^3H-flunitrazepam to GABAA receptor membrane protein was calculated. […]

[2] = target: T1, α2-GABAA receptor; test: Whole-cell patch-clamp electrophysiology, positive allosteric modulatory activity in α2-GABAAR-HEK293 cells; format: cell-based; conditions: compound 100 nM, GABA 0.10 to 0.11 µM (approximately EC7-8), normalized to reference compound CVL-865 (= 100%); for Emax at 0.1 µM: read-out: α2-GABAAR Positive allosteric modulatory activity
Source text: as §1, §2
The positive modulatory activity of the test drug on the α2-GABAA receptor was assessed using electrophysiological methods. The specific approach is as follows:
With regards to the concentration of the compound, the final concentration of all compounds used in the screening was 100 nM. For cell lines expressing α2-GABAA receptors, the GABA concentration was 0.10 to 0.11 µM (approximately EC7-8). Electrophysiological experiments were conducted using the whole-cell patch-clamp technique, which can be referenced to the method reported in the literature (Nickolls, S. A., et al. *British Journal of Pharmacology*, 2018, 175: 708-725). The composition of the extracellular solution (ECS) for electrophysiology was as follows: 150 mM NaCl, 5 mM KCl, 2.5 mM CaCl2, 1 mM MgCl2, 10 mM HEPES, and 10 mM glucose (pH 7.4). The intracellular solution (ICS) for electrophysiology was formulated as follows: 140 mM CsCl, 11 mM EGTA, 10 mM HEPES, 2 mM CaCl2, 1 mM MgCl2, 4 mM MgATP, and 2 mM TEA (pH 7.3). GABA (γ-aminobutyric acid) powder was dissolved in pure water to prepare a stock solution, which was subsequently diluted in ECS. The compound was initially dissolved in dimethyl sulfoxide to prepare a 4 mM stock solution, followed by stepwise dilution into GABA-ECS at corresponding concentrations. All solutions were freshly prepared prior to electrophysiological testing.
Electrophysiological signals were acquired using an EPC 10 amplifier and PatchMaster software (HEKA) or an Axon 700B amplifier and Clampex software (AXON). The recording electrode was pulled from borosilicate glass, with an electrode resistance of 4 to 6 MΩ. Extracellular administration was performed using the ALA-VC-8PG™ system. A single independently growing cell was selected. After forming a tight seal between the glass electrode and the cell membrane, the membrane was ruptured to establish the whole-cell configuration. The cell membrane potential was clamped at -60 mV and recorded in Gap-free mode. During the test, extracellular fluid was first applied externally for approximately 20 seconds. After the baseline (Iprebaseline) was stabilized, the extracellular solution was switched to GABA-ECS. At this point, the current induced by GABA (Igaba) can be detected. After approximately 10 to 20 seconds, once the current had stabilized, the extracellular solution was switched to a mixture of the compound and GABA-ECS until the current induced by both the compound and GABA (Itreatment) could be detected. Finally, the solution was switched to extracellular fluid, and the recording was terminated after 20 to 40 seconds. Only cells with a stable baseline, an absolute control current magnitude (Igaba - Iprebaseline) greater than 40 pA, and a relatively stable current within 10 to 20 seconds were used for compound testing. […]

CCCNC(=O)c1nc2c(-c3cccc(C(F)(F)F)c3)cccn2c1N [Example 47, 3-Amino-N-propyl-8-(3-(trifluoromethyl)phenyl)imidazo[1,2-a]pyridine-2-carboxamide]
Ki [1]: 35.2 nM

CCCNC(=O)c1nc2c(-c3cc(F)cc(C#N)c3)cccn2c1N [Example 55, 3-Amino-8-(3-cyano-5-fluorophenyl)-N-propylimidazo[1,2-a]pyridine-2-carboxamide]
Ki [1]: 27.8 nM
Emax at 0.1 µM [2]: 89%

CCCNC(=O)c1nc2c(-c3cccc(Cl)c3F)cccn2c1N [Example 66, 3-Amino-8-(3-chloro-2-fluorophenyl)-N-propylimidazo[1,2-a]pyridine-2-carboxamide]
Ki [1]: 2.44 nM

CCCNC(=O)c1nc2c(OCc3c(F)cccc3OC)cccn2c1N [Example 151, 3-Amino-8-((2-fluoro-6-methoxybenzyl)oxy)-N-propylimidazo[1,2-a]pyridine-2-carboxamide]
Ki [1]: 87 nM
Emax at 0.1 µM [2]: 35%

CCCNC(=O)c1nc2c(-c3c(Cl)cccc3OC)cccn2c1N [Example 72, 3-Amino-8-(2-chloro-6-methoxyphenyl)-N-propylimidazo[1,2-a]pyridine-2-carboxamide]
Ki [1]: 95 nM
Emax at 0.1 µM [2]: 44%

CCCNC(=O)c1nc2c(-c3cccc(F)c3)cccn2c1N [Example 46, 3-Amino-8-(3-fluorophenyl)-N-propylimidazo[1,2-a]pyridine-2-carboxamide]
Ki [1]: 18.7 nM
Emax at 0.1 µM [2]: 50%

CCCNC(=O)c1nc2c(N3CCOCC3C)cccn2c1N (stereo not shown) [Example 149, 3-Amino-8-(3-methylmorpholino)-N-propylimidazo[1,2-a]pyridine-2-carboxamide]
Ki [1]: 90 nM
Emax at 0.1 µM [2]: 44%

CCCCNC(=O)c1nc2c(-c3c(F)cccc3OC)cccn2c1N [Example 26, 3-Amino-8-(2-fluoro-6-methoxyphenyl)-N-butylimidazo[1,2-a]pyridine-2-carboxamide]
Ki [1]: 17.8 nM
Emax at 0.1 µM [2]: 97%

CCCNC(=O)c1nc2c(-c3c(F)cccc3OC)nccn2c1N [Example 135, 3-amino-8-(2-fluoro-6-methoxyphenyl)-N-propylimidazo[1,2-a]pyrazine-2-carboxamide]
Ki [1]: 81.1 nM
Emax at 0.1 µM [2]: 60%

COc1ccc(C)cc1-c1cccn2c(N)c(C(=O)NC3CC(C)C3)nc12 (stereo not shown) [Example 33, 3-Amino-8-(2-methoxy-5-methylphenyl)-N-(3-methylcyclobutyl)imidazo[1,2-a]pyridine-2-carboxamide]
Ki [1]: 15.5 nM
Emax at 0.1 µM [2]: 155%

CCCNC(=O)c1nc2c(-c3cc(C)ccc3F)cccn2c1N [Example 50, 3-Amino-8-(2-fluoro-5-methylphenyl)-N-propylimidazo[1,2-a]pyridine-2-carboxamide]
Ki [1]: 3.95 nM
Emax at 0.1 µM [2]: 104%

CCCNC(=O)c1nc2c(-c3c(F)cccc3OC)c(F)ccn2c1N [Example 122, 3-Amino-7-fluoro-8-(2-fluoro-6-methoxyphenyl)-N-propylimidazo[1,2-a]pyridine-2-carboxamide]
Ki [1]: 11.4 nM
Emax at 0.1 µM [2]: 105%

CCCNC(=O)c1nc2c(-c3c(F)cccc3OC)c(C#N)ccn2c1N [Example 148, 3-Amino-7-cyano-8-(2-fluoro-6-methoxyphenyl)-N-propylimidazo[1,2-a]pyridine-2-carboxamide]
Ki [1]: 4.46 nM
Emax at 0.1 µM [2]: 107%

CCCNC(=O)c1nc2c(-c3c(F)ccc(F)c3OC)cccn2c1N [Example 79, 3-Amino-8-(3,6-difluoro-2-methoxyphenyl)-N-propylimidazo[1,2-a]pyridine-2-carboxamide]
Ki [1]: 40.1 nM
Emax at 0.1 µM [2]: 71%

CCCNC(=O)c1nc2c(-c3cccc(C#N)c3F)cccn2c1N [Example 57, 3-Amino-8-(3-cyano-2-fluorophenyl)-N-propylimidazo[1,2-a]pyridine-2-carboxamide]
Ki [1]: 3.32 nM
Emax at 0.1 µM [2]: 167%

COc1cccc(F)c1-c1c(F)ccn2c(N)c(C(=O)NCC=C(F)F)nc12 [Example 131, 3-Amino-N-(3,3-difluoroallyl)-7-fluoro-8-(2-fluoro-6-methoxyphenyl)imidazo[1,2-a]pyridine-2-carboxamide]
α2-GABAAR Positive allosteric modulatory activity [2]: 82%

CCCNC(=O)c1nc2c(-c3ccnc(C)c3)cccn2c1N [Example 86, 3-Amino-8-(2-methylpyridin-4-yl)-N-propylimidazo[1,2-a]pyridine-2-carboxamide]
Emax at 0.1 µM [2]: 73%

CCCNC(=O)c1nc2c(-c3c(OC)ccc4ccoc34)cccn2c1N [Example 103, 3-Amino-8-(6-methoxybenzofuran-7-yl)-N-propylimidazo[1,2-a]pyridine-2-carboxamide]
Emax at 0.1 µM [2]: 87%

CCCNC(=O)c1nc2c(-c3cc(F)ccc3OC)c(F)ccn2c1N [Example 110, 3-Amino-7-fluoro-8-(5-fluoro-2-methoxyphenyl)-N-propylimidazo[1,2-a]pyridine-2-carboxamide]
Emax at 0.1 µM [2]: 141%

CCCNC(=O)c1nc2c(-c3cccc(N4CCOC4=O)c3)cccn2c1N [Example 41, 3-Amino-8-(3-(2-oxooxazolidin-3-yl)phenyl)-N-propylimidazo[1,2-a]pyridine-2-carboxamide]
Emax at 0.1 µM [2]: 30%

C#CCNC(=O)c1nc2c(-c3c(F)cccc3OC)cccn2c1N [Example 31, N-Propargyl-3-amino-8-(2-fluoro-6-methoxyphenyl)imidazo[1,2-a]pyridine-2-carboxamide]
Emax at 0.1 µM [2]: 26%
